A word on the IC50: it is the concentration needed to halve the response being measured. Lower therefore signals greater potency in that assay.

The structures appear in SMILES notation.

Sequence of human ACC2 (O00763 129-2458): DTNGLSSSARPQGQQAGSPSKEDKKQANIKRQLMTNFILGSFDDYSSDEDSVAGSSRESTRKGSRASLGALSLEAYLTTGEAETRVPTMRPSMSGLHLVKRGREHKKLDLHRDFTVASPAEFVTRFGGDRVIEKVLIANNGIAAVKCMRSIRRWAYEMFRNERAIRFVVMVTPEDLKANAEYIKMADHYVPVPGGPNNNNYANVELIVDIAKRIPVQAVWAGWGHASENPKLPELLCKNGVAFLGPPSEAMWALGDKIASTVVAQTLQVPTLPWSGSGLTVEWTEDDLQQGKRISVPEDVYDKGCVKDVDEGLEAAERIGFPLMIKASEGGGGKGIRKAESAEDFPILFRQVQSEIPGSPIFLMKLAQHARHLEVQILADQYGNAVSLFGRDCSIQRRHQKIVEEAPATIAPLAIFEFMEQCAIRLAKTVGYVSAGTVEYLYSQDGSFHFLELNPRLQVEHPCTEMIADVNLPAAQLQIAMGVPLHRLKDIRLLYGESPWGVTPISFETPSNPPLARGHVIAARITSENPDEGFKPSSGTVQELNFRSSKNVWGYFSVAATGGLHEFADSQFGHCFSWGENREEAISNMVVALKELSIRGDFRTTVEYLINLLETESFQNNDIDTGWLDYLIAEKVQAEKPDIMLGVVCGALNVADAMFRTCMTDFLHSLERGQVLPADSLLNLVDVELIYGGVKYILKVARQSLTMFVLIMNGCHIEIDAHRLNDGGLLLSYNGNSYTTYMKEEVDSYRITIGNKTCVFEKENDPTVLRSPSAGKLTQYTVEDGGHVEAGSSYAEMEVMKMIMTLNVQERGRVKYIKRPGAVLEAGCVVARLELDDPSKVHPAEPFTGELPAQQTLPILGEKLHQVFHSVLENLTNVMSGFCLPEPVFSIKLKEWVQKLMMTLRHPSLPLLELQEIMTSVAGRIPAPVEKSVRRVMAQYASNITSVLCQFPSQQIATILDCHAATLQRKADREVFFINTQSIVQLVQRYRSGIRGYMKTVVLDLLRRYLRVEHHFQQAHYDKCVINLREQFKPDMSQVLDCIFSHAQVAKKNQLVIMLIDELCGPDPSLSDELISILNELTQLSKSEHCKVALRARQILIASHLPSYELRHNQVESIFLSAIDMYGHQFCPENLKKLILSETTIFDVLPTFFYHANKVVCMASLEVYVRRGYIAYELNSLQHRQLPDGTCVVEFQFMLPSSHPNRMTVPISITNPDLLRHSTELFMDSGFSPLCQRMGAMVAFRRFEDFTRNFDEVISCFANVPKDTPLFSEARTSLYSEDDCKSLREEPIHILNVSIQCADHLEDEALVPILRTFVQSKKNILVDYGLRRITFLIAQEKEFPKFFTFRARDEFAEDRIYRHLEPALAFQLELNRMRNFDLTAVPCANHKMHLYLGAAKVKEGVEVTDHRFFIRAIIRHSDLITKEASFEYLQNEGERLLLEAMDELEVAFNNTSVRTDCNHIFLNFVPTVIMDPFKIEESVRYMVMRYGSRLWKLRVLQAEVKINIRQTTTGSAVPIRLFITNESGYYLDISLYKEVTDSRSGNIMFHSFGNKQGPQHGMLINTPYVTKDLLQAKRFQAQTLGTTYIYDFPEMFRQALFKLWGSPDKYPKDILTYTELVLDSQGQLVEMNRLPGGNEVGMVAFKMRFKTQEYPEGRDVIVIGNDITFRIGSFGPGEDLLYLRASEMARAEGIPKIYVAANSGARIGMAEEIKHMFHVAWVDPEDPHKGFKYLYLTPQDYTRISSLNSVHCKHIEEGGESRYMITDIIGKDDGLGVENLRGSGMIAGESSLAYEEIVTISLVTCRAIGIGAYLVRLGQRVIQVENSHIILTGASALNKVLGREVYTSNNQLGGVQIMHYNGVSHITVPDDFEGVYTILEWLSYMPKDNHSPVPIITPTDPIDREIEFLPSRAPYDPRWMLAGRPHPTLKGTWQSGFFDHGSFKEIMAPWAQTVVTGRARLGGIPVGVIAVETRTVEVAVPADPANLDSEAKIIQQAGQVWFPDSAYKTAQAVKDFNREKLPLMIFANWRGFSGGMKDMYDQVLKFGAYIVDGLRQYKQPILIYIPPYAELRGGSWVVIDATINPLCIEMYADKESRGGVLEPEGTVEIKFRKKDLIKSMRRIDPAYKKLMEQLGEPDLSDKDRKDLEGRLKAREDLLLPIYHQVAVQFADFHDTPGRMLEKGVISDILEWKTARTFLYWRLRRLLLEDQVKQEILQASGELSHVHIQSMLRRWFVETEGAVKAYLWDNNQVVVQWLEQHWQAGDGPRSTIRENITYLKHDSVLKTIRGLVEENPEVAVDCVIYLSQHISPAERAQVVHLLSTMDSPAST

The first assay has as its target human ACC2 (Homo sapiens (Human), UniProt O00763). As to the kind of experiment: ACC2 assay (spectrophotometric 384 well assay, NADH-linked kinetic method). The class given is biochemical.
Conditions: not given
An outline of the steps:
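Baculovirus/insect-cell human ACC2, anion-exchange purified; ADP formation coupled to pyruvate kinase/lactate dehydrogenase, NADH loss followed at 340 nm, 25° C, 15 min. Final 200 μM NADH and acetyl-CoA, 500 uM ATP; vehicle and no-acetyl-CoA wells set 100% and 0%.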
For the molecule `C[C@H](NC(=O)C1CC1)c1ccc(O[C@@H]2CCN(c3ccnc(N(C)CC(F)F)n3)C2)cc1` [Example 2.1, N—((S)-1-(4-((R)-1-(2-((2,2-difluoroethyl)(methyl)amino)pyrimidin-4-yl)pyrrolidin-3-yloxy)phenyl)ethyl)cyclopropanecarboxamide], the half-inhibitory concentration (IC50) was 65 nM.

The same assay, now with this note: hACC2 construct lacking 128 N-terminal amino acids; coupled lactate dehydrogenase/pyruvate kinase reaction, 340 nm, 25° C.
Turning to `CCNC(=O)N[C@@H](C)c1ccc(OC2CCN(c3ccnc(N4CCOCC4)n3)C2)cc1` (stereo partly drawn) [Example 3.3], the midpoint of inhibition, the IC50, lay at 445 nM.

On to `CC(=O)N[C@@H](C)c1ccc(O[C@@H]2CCN(c3ncnc(N4CC[C@H](C)C4)c3F)C2)cc1` [Example 8.293], for which the IC50 amounted to 50 nM.

Turning to `CC(=O)N[C@@H](C)c1ccc(O[C@@H]2CCN(c3ncnc(N4CCOCC4)c3Cl)C2)cc1` [Example 8.117], half-maximal inhibition (IC50) was put at 485 nM.

`CCCOc1ccnc(N2CC[C@@H](Oc3ccc([C@H](C)NC(C)=O)cc3)C2)n1` [Example 7.8] came in with an IC50 of 2090 nM.

For `CC(=O)N[C@@H](C)c1ccc(O[C@@H]2CCN(c3ncnc(OCC4CC4(F)F)c3F)C2)cc1` (stereo partly drawn) [Example 7.34], the IC50 is 63 nM.

Take `CCCOc1ncnc(N2CC[C@@H](Oc3ccc([C@H](C)NC(C)=O)cc3)C2)c1F` [Example 7.19]: the IC50 came to 65 nM.

Take `CC(=O)N[C@@H](C)c1ccc(O[C@@H]2CCN(c3nc(N4CC[C@H](O)C4)ncc3F)C2)cc1` [Example 8.245]: half-maximal inhibition (IC50) required 937 nM.

`COCCN(C)c1ncc(F)c(N2CC[C@@H](Oc3ccc([C@H](C)NC(C)=O)cc3)C2)n1` [Example 8.66]: the IC50 turned out to be 65 nM.

Molecule `CC(=O)N[C@@H](C)c1ccc(O[C@@H]2CCN(c3ncnc(N4CCc5nocc5C4)c3F)C2)cc1` [Example 8.212] had an IC50 of 998 nM.

The molecule `CC(=O)N[C@@H](C)c1ccc(O[C@@H]2CCN(c3nccc(N4CC5(CCC5)C4)n3)C2)cc1` [Example 8.80] registered an IC50 of 955 nM.

In turn, `CCN(CC)c1ncc(Cl)c(N2CC[C@@H](Oc3ccc([C@H](C)NC(C)=O)cc3)C2)n1` [Example 8.60] displayed an IC50 of 59 nM.

Take `CC(=O)N[C@@H](C)c1ccc(O[C@@H]2CCN(c3ncc(OCC4CCC4)cn3)C2)cc1` [Example 6.1, N—((S)-1-(4-((R)-1-(5-(cyclobutylmethoxy)pyrimidin-2-yl)pyrrolidin-3-yloxy)phenyl)ethyl)acetamide]: the IC50 was 110 nM.

For the molecule `C[C@H](NC(=O)Nc1ccon1)c1ccc(OC2CCN(c3ccnc(N4CCOCC4)n3)C2)cc1` (stereo partly drawn) [Example 3.5], the IC50 turned out to be 299 nM.

`CC(=O)N[C@@H](C)c1ccc(O[C@@H]2CCN(c3ncc(OC(C)C)cn3)C2)cc1` [Example 6.6] yielded an IC50 of 830 nM.

`COCCN(C)c1ncnc(N2CC[C@@H](Oc3ccc([C@H](C)NC(C)=O)cc3)C2)c1F` [Example 8.134] gave an IC50 of 208 nM.

For `CC(=O)N[C@@H](C)c1ccc(O[C@@H]2CCN(c3nc(N(C)CCO)ncc3Cl)C2)cc1` [Example 8.248], it took 1040 nM to reach half-maximal inhibition (IC50).

Consider `CCOc1ncnc(N2CC[C@@H](Oc3ccc([C@H](C)NC(C)=O)cc3)C2)c1Cl` [Example 7.22], for which the IC50 worked out at 140 nM.

`CCC(=O)N[C@@H](C)c1ccc(OC2CCN(c3ccnc(N(C)CC(F)F)n3)C2)cc1` (stereo partly drawn) [Example 2.16] came in with a half-maximal inhibitory concentration (IC50) of 45 nM.

The molecule `CC(=O)N[C@@H](C)c1ccc(O[C@@H]2CCN(c3cc(OC4CCC4)ncn3)C2)cc1` [Example 7.4] returned an IC50 of 373 nM.

In turn, `CC(=O)N[C@@H](C)c1ccc(O[C@@H]2CCN(c3nc(N(C)CCOC(C)(C)C)ncc3F)C2)cc1` [Example 8.215] registered an IC50 of 719 nM.

Molecule `CC(=O)N[C@@H](C)c1ccc(O[C@@H]2CCN(c3nc(N4CCC(C)(O)CC4)ncc3F)C2)cc1` [Example 8.273] returned an IC50 of 1350 nM.

`CC(=O)N[C@@H](C)c1ccc(O[C@@H]2CCN(c3nc(N(C)C)ncc3Br)C2)cc1` [Example 8.58] registered an IC50 of 484 nM.

Consider `COCCN(C)c1nccc(N2CC[C@@H](Oc3ccc([C@H](C)NC(C)=O)cc3)C2)n1` [Example 8.49], for which the midpoint of inhibition, the IC50, lay at 219 nM.

Molecule `CO[C@H]1CCN(c2ncc(F)c(N3CC[C@@H](Oc4ccc([C@H](C)NC(C)=O)cc4)C3)n2)C1` [Example 8.259] displayed an IC50 of 173 nM.

The molecule `CC(=O)N[C@@H](C)c1ccc(O[C@@H]2CCN(c3ncnc(NCC(C)(C)O)c3Cl)C2)cc1` [Example 8.296] yielded an IC50 of 113 nM.

Molecule `C[C@H](NC(=O)c1cncs1)c1ccc(O[C@@H]2CCN(c3ccnc(N(C)CC(F)F)n3)C2)cc1` [Example 8.97] yielded an IC50 of 79 nM.

Turning to `COC1CCCN(c2ncc(F)c(N3CC[C@@H](Oc4ccc([C@H](C)NC(C)=O)cc4)C3)n2)C1` (stereo partly drawn) [Example 8.275], the midpoint of inhibition, the IC50, lay at 183 nM.

`COCCCN(C)c1nccc(N2CC[C@@H](Oc3ccc([C@H](C)NC(C)=O)cc3)C2)n1` [Example 8.242] yielded an IC50 of 459 nM.

`CC(=O)N[C@@H](C)c1ccc(O[C@@H]2CCN(c3ncnc(OC4CCOCC4)c3Cl)C2)cc1` [Example 7.64] came in with an IC50 of 128 nM.

`CCN(C)c1nccc(N2CCC(Oc3ccc([C@H](C)NC(=O)c4cn[nH]c4)cc3)C2)n1` (stereo partly drawn) [Example 2.17] gave an IC50 of 118 nM.

Take `CC(=O)N[C@@H](C)c1ccc(O[C@@H]2CCN(c3ncnc(C4CCC4)c3F)C2)cc1` [Example 9.3]: the IC50 is 342 nM.

`CC(=O)N[C@@H](C)c1ccc(O[C@@H]2CCN(c3ccnc(N4CCC(C)(C)C4)n3)C2)cc1` [Example 8.78] registered an IC50 of 260 nM.

`CC(=O)N[C@@H](C)c1ccc(O[C@@H]2CCN(c3ncnc(NCC4CCC4)c3Cl)C2)cc1` [Example 8.311] registered an IC50 of 62 nM.

As to `C[C@H](NC(=O)N1CCOCC1)c1ccc(OC2CCN(c3ncnc(OCC4CC4)c3F)C2)cc1` (stereo partly drawn) [Example 3.12], the IC50 stood at 203 nM.

For `CC(=O)N[C@@H](C)c1ccc(O[C@@H]2CCN(c3nc(N(C)C[C@@H]4CCCO4)ncc3F)C2)cc1` [Example 8.165], the IC50 turned out to be 75 nM.

`CC(=O)N[C@@H](C)c1ccc(O[C@@H]2CCN(c3nc(N4CCc5nocc5C4)ncc3Cl)C2)cc1` [Example 8.175]: half-maximal inhibition (IC50) was put at 1380 nM.

Turning to `CCC(=O)Nc1nc(C)c(C(=O)N[C@@H](C)c2ccc(O[C@@H]3CCN(c4ncnc(NCC5CC5)c4Cl)C3)cc2)s1` [Example 8.307], the IC50 stood at 94 nM.

Molecule `CC(=O)N[C@@H](C)c1ccc(O[C@@H]2CCN(c3ncnc(N4CCOC(C)(C)C4)c3F)C2)cc1` [Example 8.176] came in with an IC50 of 683 nM.

Take `CC(=O)N[C@@H](C)c1ccc(OC2CCN(c3cnc(OC4CCC4)nc3)C2)cc1` (stereo partly drawn) [Example 1.2]: the IC50 came to 565 nM.

The molecule `COC[C@H](C)N(C)c1ncnc(N2CC[C@@H](Oc3ccc([C@H](C)NC(C)=O)cc3)C2)c1F` [Example 8.177] yielded an IC50 of 476 nM.

In turn, `CC(=O)N[C@@H](C)c1ccc(O[C@@H]2CCN(c3nc(N(CCO)C4CC4)ncc3F)C2)cc1` [Example 8.288] gave an IC50 of 874 nM.

Regarding `CC(=O)N[C@@H](C)c1ccc(O[C@@H]2CCN(c3ccnc(N(C)CCC#N)n3)C2)cc1` [Example 8.37], the IC50 worked out at 349 nM.

Molecule `CCCOc1cc(N2CC[C@@H](Oc3ccc([C@H](C)NC(C)=O)cc3)C2)ncn1` [Example 7.2] yielded an IC50 of 649 nM.

As for `CC(=O)N[C@@H](C)c1ccc(O[C@@H]2CCN(c3ncnc(NCC4(O)CC4)c3Cl)C2)cc1` [Example 8.305], the IC50 came to 176 nM.

Molecule `C[C@H](NC(=O)c1cncs1)c1ccc(O[C@@H]2CCN(c3nccc(N4CCOCC4)n3)C2)cc1` [Example 6.14] displayed an IC50 of 290 nM.

Molecule `CCN(C)c1nc(N2CC[C@@H](Oc3ccc([C@H](C)NC(C)=O)cc3)C2)ncc1F` [Example 6.12] displayed an IC50 of 828 nM.

Molecule `COC(=O)N[C@@H](C)c1ccc(OC2CCN(c3ccnc(N4CCOCC4)n3)C2)cc1` (stereo partly drawn) [Example 4.2] showed a 50% inhibitory concentration (IC50) of 244 nM.

In turn, `CC(=O)N[C@@H](C)c1ccc(O[C@@H]2CCN(c3nc(N(C)C4CCOCC4)ncc3F)C2)cc1` [Example 8.290] showed an IC50 of 765 nM.

In turn, `CC(=O)N[C@@H](C)c1ccc(O[C@@H]2CCN(c3nc(NC4CCCC4)ncc3F)C2)cc1` [Example 8.10] gave an IC50 of 190 nM.

`CCC(=O)N[C@@H](C)c1ccc(OC2CCN(c3ncnc(OCC4CC4)c3F)C2)cc1` (stereo partly drawn) [Example 2.23] gave an IC50 of 144 nM.

On to `CC(=O)N[C@@H](C)c1ccc(O[C@@H]2CCN(c3nc(N4C[C@@H]5C[C@H]4CO5)ncc3Cl)C2)cc1` [Example 8.146], for which the IC50 was 984 nM.

Take `C[C@H](NC(=O)N1CCC1)c1ccc(OC2CCN(c3ccnc(N4CCOCC4)n3)C2)cc1` (stereo partly drawn) [Example 3.4]: the IC50 is 1040 nM.

In turn, `CC(=O)N[C@@H](C)c1ccc(O[C@@H]2CCN(c3nc(OCC(C)C)ncc3F)C2)cc1` [Example 7.14] registered an IC50 of 780 nM.

As for `COc1c(OC(C)C)ncnc1N1CC[C@@H](Oc2ccc([C@H](C)NC(C)=O)cc2)C1` [Example 7.50], it took 97 nM to reach half-maximal inhibition (IC50).

On to `CCN(CCO)c1ncc(F)c(N2CC[C@@H](Oc3ccc([C@H](C)NC(C)=O)cc3)C2)n1` [Example 8.240], for which 215 nM corresponded to half-maximal inhibition (IC50).

In turn, `CC(=O)N[C@@H](C)c1ccc(O[C@@H]2CCN(c3nc(N4CCCC4C)ncc3Cl)C2)cc1` (stereo partly drawn) [Example 8.154] registered an IC50 of 103 nM.

The molecule `CC(=O)N[C@@H](C)c1ccc(O[C@@H]2CCN(c3ncnc(NCC4(O)CCC4)c3F)C2)cc1` [Example 8.292] showed an IC50 of 359 nM.

Molecule `CC(=O)N[C@@H](C)c1ccc(O[C@@H]2CCN(c3nc(N(C)CC(C)C)ncc3F)C2)cc1` [Example 8.164] showed an IC50 of 102 nM.

For the molecule `CC(=O)N[C@@H](C)c1ccc(O[C@@H]2CCN(c3ncc(OCC(C)C)cn3)C2)cc1` [Example 6.20], the IC50 worked out at 974 nM.

In turn, `CC(=O)N[C@@H](C)c1ccc(O[C@@H]2CCN(c3ccnc(N4[C@H](C)COC[C@@H]4C)n3)C2)cc1` [Example 8.90] had a half-inhibitory concentration (IC50) of 364 nM.

`CC(=O)N[C@@H](C)c1ccc(O[C@@H]2CCN(c3ncnc(OC[C@@H]4CC4(F)F)c3F)C2)cc1` [Example 7.48] gave an IC50 of 87 nM.

`CCN(C)c1nccc(N2CCC(Oc3ccc([C@H](C)NC(=O)OC)cc3)C2)n1` (stereo partly drawn) [Example 4.4]: the IC50 was 75 nM.

The record behind these values is patent US8962641B2, “Pyrimidine-substituted pyrrolidine derivatives, pharmaceutical compositions and uses thereof” (Boehringer Ingelheim International GmbH, priority 2013, dated 2015).
